Laboratory results from ChEMBL document CHEMBL4011595, “Design, synthesis and structure-activity relationship studies of novel free fatty acid receptor 1 agonists bearing amide linker” (Bioorg Med Chem, 2017).

test system: Mus musculus; test: Anti-diabetic activity in ICR mouse assessed as reduction in blood glucose AUC at 50 mg/kg, po pretreated for 60 mins followed by glucose challenge measured after 120 mins by OGTT relative to control; format: functional; parameters: scale not given: the % may be the effect or the level left; details: not given

| Compound | Activity |
| --- | --- |
| Cc1cccc(C(=O)Nc2ccc(CCC(=O)O)cc2)c1 | 20.3% |
| Cc1cccc(C)c1-c1cccc(C(=O)Nc2ccc(CCC(=O)O)cc2)c1 | 23.7% |
| O=C(O)CCc1ccc(NC(=O)c2cccc(Oc3ccccc3)c2)cc1 | 12.8% |

test system: Mus musculus; test: Antidiabetic activity in HFD/STZ-induced type2 diabetic C57BL/6 mouse assessed as decrease in blood glucose AUC at 20 mg/kg, po administered as single dose 60 mins prior to glucose challenge measured 120 mins post dose by OGTT relative to control; format: functional; parameters: scale not given: the % may be the effect or the level left; details: not given

| Compound | Activity |
| --- | --- |
| Cc1cc(OCCCS(C)(=O)=O)cc(C)c1-c1cccc(COc2ccc3c(c2)OC[C@H]3CC(=O)O)c1 [FASIGLIFAM] | 39.1% |

test system: Mus musculus; test: Antidiabetic activity in HFD/STZ-induced type2 diabetic C57BL/6 mouse assessed as decrease in blood glucose excursion administered as single oral dose pretreated for 60 mins followed by glucose challenge after 120 mins by OGTT; format: functional; details: not given

| Compound | Activity |
| --- | --- |
| Cc1cccc(C)c1-c1cccc(C(=O)Nc2ccc(CCC(=O)O)cc2)c1 | Dose-dependent effect |

test system: Mus musculus; test: Decrease in plasma glucose level in po dosed ICR mouse 60 mins before oral glucose challenge by OGTT method; format: functional, organism-based; details: TDE = time-dependent effect

| Compound | Activity |
| --- | --- |
| O=C(O)CCc1ccc(NC(=O)c2cccc(Cl)c2)cc1 | Tde |
| Cc1cccc(C(=O)Nc2ccc(CCC(=O)O)cc2)c1 | Tde |
| Cc1cccc(C)c1-c1cccc(C(=O)Nc2ccc(CCC(=O)O)cc2)c1 | Tde |
| CC(C)(C)c1ccc(C(=O)Nc2ccc(CCC(=O)O)cc2)cc1 | Tde |
| O=C(O)CCc1ccc(NC(=O)c2cccc(Oc3ccccc3)c2)cc1 | Tde |

target: T1, Free fatty acid receptor 1 (Homo sapiens, UniProt O14842); test: Agonist activity at human FFA1 expressed in CHO cells assessed as increase in intracellular Ca2+ flux at 1 uM measured for 90 secs by Fluo4-AM dye based FLIPR assay relative to control; format: functional, cell-based; details: not given
T1 sequence (O14842 whole entry): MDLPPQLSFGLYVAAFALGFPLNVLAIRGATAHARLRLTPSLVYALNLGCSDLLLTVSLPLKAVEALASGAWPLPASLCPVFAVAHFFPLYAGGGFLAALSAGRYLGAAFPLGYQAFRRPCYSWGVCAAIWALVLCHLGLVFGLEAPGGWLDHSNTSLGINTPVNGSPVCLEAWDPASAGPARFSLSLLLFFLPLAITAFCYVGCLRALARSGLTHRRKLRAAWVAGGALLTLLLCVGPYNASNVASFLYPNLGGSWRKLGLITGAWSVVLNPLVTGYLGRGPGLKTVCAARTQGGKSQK

| Compound | Activity |
| --- | --- |
| Cc1ccc(C(=O)Nc2ccc(CCC(=O)O)cc2)cc1 | 19.4% |
| O=C(O)CCc1ccc(NC(=O)c2cccc(Cl)c2)cc1 | 25.4% |
| Cc1cc(OCCCS(C)(=O)=O)cc(C)c1-c1cccc(COc2ccc3c(c2)OC[C@H]3CC(=O)O)c1 [FASIGLIFAM] | 96.3% |
| Cc1ccccc1C(=O)Nc1ccc(CCC(=O)O)cc1 | 5.67% |
| O=C(O)CCc1ccc(NC(=O)c2cccs2)cc1 | 13.8% |
| Cc1cccc(C(=O)Nc2ccc(CCC(=O)O)cc2)c1 | 29.4% |
| O=C(O)c1ccc(NC(=O)c2ccc(C(=O)c3ccccc3)cc2)cc1 | 15.3% |
| Cc1cccc(C)c1-c1cccc(C(=O)Nc2ccc(CCC(=O)O)cc2)c1 | 45.8% |
| O=C(O)CCc1ccc(NC(=O)c2ccccc2[N+](=O)[O-])cc1 | 0.19% |
| O=C(O)CCc1ccc(NCc2cccc(Oc3ccccc3)c2)cc1 | 83.8% |
| O=C(O)CCc1ccc(NC(=O)c2ccc(Cl)cc2)cc1 | 17.9% |
| O=C(O)CCc1ccc(NC(=O)c2cccnc2)cc1 | 4.29% |
| COc1ccccc1C(=O)Nc1ccc(CCC(=O)O)cc1 | 1.26% |
| CC(C)(C)c1ccc(C(=O)Nc2ccc(CCC(=O)O)cc2)cc1 | 21.4% |
| O=C(O)CCc1ccc(NC(=O)c2ccsc2)cc1 | 15.4% |
| O=C(O)CCc1ccc(NC(=O)c2ccccc2Cl)cc1 | 7.73% |
| COc1cccc(C(=O)Nc2ccc(CCC(=O)O)cc2)c1 | 19.8% |
| O=C(O)CCc1ccc(NC(=O)c2cccc(Oc3ccccc3)c2)cc1 | 34.3% |
| O=C(O)CCc1ccc(NC(=O)c2ccccc2)cc1 | 18.8% |

target: T1, Free fatty acid receptor 1; test: Agonist activity at FFA1 (unknown origin); details: not given

| Compound | EC50 |
| --- | --- |
| CC#C[C@@H](CC(=O)O)c1ccc(NC(=O)C(=O)Nc2cccc(C(C)(C)C)c2)cc1 | 4 nM |

test system: Mus musculus; test: Anti-diabetic activity in ICR mouse assessed as reduction in blood glucose level at 50 mg/kg, po pretreated for 60 mins followed by glucose challenge measured after 120 mins by OGTT relative to control; format: functional; parameters: scale not given: the % may be the effect or the level left; details: not given

| Compound | Activity |
| --- | --- |
| Cc1cccc(C)c1-c1cccc(C(=O)Nc2ccc(CCC(=O)O)cc2)c1 | 23.7% |

test system: Mus musculus; test: Antidiabetic activity in HFD/STZ-induced type2 diabetic C57BL/6 mouse assessed as decrease in blood glucose AUC at 100 mg/kg, po administered as single dose 60 mins prior to glucose challenge measured 120 mins post dose by OGTT relative to control; format: functional; parameters: scale not given: the % may be the effect or the level left; details: not given

| Compound | Activity |
| --- | --- |
| Cc1cccc(C)c1-c1cccc(C(=O)Nc2ccc(CCC(=O)O)cc2)c1 | 29.1% |

test system: Mus musculus; test: Anti-diabetic activity in ICR mouse assessed as reduction in blood glucose level at 200 mg/kg, po pretreated for 60 mins followed by glucose challenge measured after 120 mins by OGTT relative to control; format: functional; parameters: scale not given: the % may be the effect or the level left; details: not given

| Compound | Activity |
| --- | --- |
| CN(C)C(=N)NC(=N)N [METFORMIN] | 27.8% |
